# Measured values as given in patent publication US9206423B2, “Methods of modulating compliance of the trabecular meshwork” (The Regents of the University of California, priority 2012, dated 2015).
# Key:
# [1] = system: HSP90; experiment: Amount of HSP90 in HTM cells after 17-allylamino-17-demethoxygelanamycin; format: cell-based, human; conditions: 25 nM
# [2] = system: YAP; experiment: Expression of YAP in HTM cells after 17-allylamino-17-demethoxygelanamycin; format: cell-based, human; conditions: 25 nM
smiles,measurement,setting,value
C=CCNC1=C2C[C@@H](C)C[C@H](OC)[C@H](O)[C@@H](C)/C=C(\C)[C@H](OC(N)=O)[C@@H](OC)/C=C\C=C(/C)C(=O)NC(=CC1=O)C2=O [17-allylamino-17-demethoxygelanamycin],reduction of the amount of HSP90,[1],50%
same,expression of YAP,[2],increased expression
